# Results from patent US20100226983A1, “Compositions for treatment and prevention of acne, methods of making the compositions, and methods of use thereof” (NanoBio Corporation, priority 2009, published 2010).
# Where two headings read alike, the source gives them in different places.
# How the values were obtained:
# [1] = system: P. acnes; assay: MIC and MBC against 16 clinical isolates of P. acnes (broth microdilution, no sebum); type: cell-based, Propionibacterium acnes; conditions: for MIC50 / MBC / MIC90: Cutibacterium acnes; for MIC Range / MBC Range: NB-00X formulations as μg CPC/ml
# Procedure: The nanoemulsions (“NB-00X”) comprised, in an aqueous medium, soybean oil, Tween 20® as a nonionic surfactant, ethanol, cetylpyridinium chloride (CPC) as a cationic surfactant, EDTA, and water, and optionally, a thickening agent for the gel formulation.
# Each dilution contained varying concentrations of soybean oil, Tween 20®, ethanol, CPC, and EDTA. Combination products were also evaluated; stock emulsions containing NB-00X gel (3 mg CPC/ml)+2% salicyclic acid or NB-00X gel+0.5% benzoyl peroxide (BPO) were serially diluted two-fold and each concentration was tested against 16 P. acnes isolates. In general, the standard methodology was followed for MIC and MBC determination.
# Weighing of drugs and potency calculations were done as prescribed by Clinical and Laboratory Standards Institute (1). Dimethyl sulfoxide (DMSO) was used to prepare stock solutions of the water-insoluble compound tetracycline at 100× concentrations. […] Stock solutions of chlorhexidine and NB-00X were prepared at a 4× concentration in DI water.
# To prepare intermediate concentrations, 100× stock solutions were serially diluted 1:1 using DMSO or DI water. Final concentrations were made by 1:50 or 1:1 dilutions in Wilkin Chalgren media (1) to give 2× of the test concentrations, with final DMSO concentrations at 1%. 50 μl of these drug concentrations were transferred to 96-well plates using multi-channel pipettes.
# P. acnes strains grown on sheep blood agar for 24-48 hrs at 35° C. were used as the sources of inocula for susceptibility studies as per Clinical and Laboratory Standards Institute. […] Within 15 minutes, each well (except the negative growth controls) of the microtiter tray containing the serial dilutions of test compounds received 50 μl of inoculum, resulting into a log2 dilution of both drug and bug in each well. Verification of the colony-forming units in the inoculum was performed by diluting the adjusted inoculum preparation to […] and plating 100 μl on blood agar plate.
# Microtiter and blood agar plates were incubated at 35-37° C. for 48 h in a 7.0 L AnaeroPack Jar (Mitsubishi gas chemical; No. 50-70) fitted with an anaerobic gas generating system (Misubishi, No. 10-01) and a dry anaerobic indicator strip (BBL, Becton, Dickinson & Co. #271051). MICs were read visually using a 96-well plate reader fitted with a magnifying mirror (Biodesign of New York). Because of the opacity of benzoyl peroxide, 20 μl of Cell Titer Blue (alamar blue from Promega G8080) was added after 48 hrs; the plates were incubated for an additional hour prior to reading. Colony-forming units were counted after 72 h of incubation to ensure that the initial inocula were between 2-5×10^6 cfu/ml.
# The minimal bactericidal concentrations (MBC) for P. acnes were determined by plating 10 μl from the well determined to be the MIC plus 4 wells above the MIC on blood-supplemented Mueller-Hinton agar plate. Inoculated petri plates were incubated for 72 h at 35° C. under anaerobic conditions.
# [2] = system: P. acnes; assay: MIC and MBC against 16 P. acnes isolates in the presence of 50% artificial sebum; type: cell-based, Propionibacterium acnes; conditions: for impact of sebum on microbiological activity (MIC90/MBC90) / increase of MBC90/MBCs in the presence of sebum / increase of MIC90 in the presence of sebum: 50% sebum versus no sebum; for impact of sebum on microbiological activity (MIC90/MBC90): up to the concentrations tested; for MIC90: Cutibacterium acnes, 16 P. acnes isolates, 50% artificial sebum
# Procedure: The nanoemulsions (“NB-002”) comprised, in an aqueous medium, soybean oil, Tween 20® as a nonionic surfactant, ethanol, cetylpyridinium chloride (CPC) as a cationic surfactant, EDTA, and water. Artificial sebum was prepared by adding the entire ingredients given in the Table 6 and heating at 60° C. in a water bath, with intermittent stirring until all solids melted resulting in to a clear yellow liquid ([…] et al., “Diffusion properties of model compounds in artificial sebum. Int. J. Pharm., 345:88-94 (2007)). To prepare intermediate concentrations, 100× stock solutions were serially diluted 1:1 using DMSO or DI water. Final concentrations were made by 1:50 dilutions in Wilkin Chalgren media to give 2× of the final test concentrations, with final DMSO concentrations at 1%. 50 μl of these drug concentrations were transferred to 96-well plates using multi-channel pipettes. Sebum was prewarmed to 50° C. and each well received 45 μl of sebum. After ten minutes at 35° C., five microliters of a P. acnes culture at 10^8 colony-forming units/ml was added to each well.
# [3] = 16 P. acnes isolates, no sebum, read-out: MBC50
# [4] = 16 P. acnes isolates, no sebum, read-out: MBC90
# [5] = 16 P. acnes isolates, no sebum, listed as chlorhexidine
Compound,"MIC50 ([1]; 16 P. acnes isolates, no sebum)",impact of sebum on microbiological activity (MIC90/MBC90) [2],"MIC Range ([1]; 16 P. acnes isolates, no sebum)","MIC90 ([1]; 16 P. acnes isolates, no sebum)",MIC90 [2],"MIC Range [1, 5]",increase of MIC90 in the presence of sebum [2],"MBC [1, 3]","MBC90 ([1]; 16 P. acnes isolates, no sebum)","MBC [1, 4]","MBC Range ([1]; 16 P. acnes isolates, no sebum)","MBC Range [1, 5]",increase of MBC90/MBCs in the presence of sebum [2],isolates resistant ([1]; share of the P. acnes isolates resistant to the drug)
O=C(O)c1ccccc1O [Salicylic acid],1000 µg/mL,not significantly impacted,500 to 1000 µg/mL,1000 µg/mL,1000 µg/mL,–,–,2000 µg/mL,2000 µg/mL,2000 µg/mL,–,–,–,–
"CN(C)[C@@H]1C(O)=C(C(N)=O)C(=O)[C@@]2(O)C(O)=C3C(=O)c4c(O)cccc4[C@@](C)(O)[C@H]3C[C@@H]12 [Tetracycline, tetracycline]",1 µg/mL,–,–,> 32 µg/mL,32 µg/mL,–,–,> 16 µg/mL,–,> 32 µg/mL,–,–,–,44%
"O=C(OOC(=O)c1ccccc1)c1ccccc1 [Benzoyl peroxide, benzoyl peroxide]",50 µg/mL,–,≦50-100 μg/ml,50 µg/mL,400 µg/mL,–,eight-fold,200 µg/mL,–,200 µg/mL,100 to 400 µg/mL,–,eight-fold,–
"CCC[C@@H]1C[C@@H](C(=O)N[C@@H]([C@H]2O[C@H](SC)[C@H](O)[C@@H](O)[C@H]2O)[C@H](C)Cl)N(C)C1 [Clindamycin, clindamycin]",2 µg/mL,–,–,> 64 µg/mL,> 64 µg/mL,–,–,> 64 µg/mL,–,> 64 µg/mL,–,–,–,–

# Further lines, with some results ahead:
"MIC50 ([1]; 16 P. acnes isolates, no sebum)",impact of sebum on microbiological activity (MIC90/MBC90) [2],"MIC Range ([1]; 16 P. acnes isolates, no sebum)","MIC90 ([1]; 16 P. acnes isolates, no sebum)",MIC90 [2],"MIC Range [1, 5]",increase of MIC90 in the presence of sebum [2],Compound,"MBC [1, 3]","MBC90 ([1]; 16 P. acnes isolates, no sebum)","MBC [1, 4]","MBC Range ([1]; 16 P. acnes isolates, no sebum)","MBC Range [1, 5]",increase of MBC90/MBCs in the presence of sebum [2],isolates resistant ([1]; share of the P. acnes isolates resistant to the drug)
2 µg/mL,did not impact,–,–,–,–,–,"CC[C@H]1OC(=O)[C@H](C)[C@@H](O[C@H]2C[C@@](C)(OC)[C@@H](O)[C@H](C)O2)[C@H](C)[C@@H](O[C@@H]2O[C@H](C)C[C@H](N(C)C)[C@H]2O)[C@](C)(O)C[C@@H](C)C(=O)[C@H](C)[C@@H](O)[C@]1(C)O [Erythromycin, erythromycin]",> 64 µg/mL,–,–,–,–,–,–
≤ 10 µg/mL,–,≦10 μg/ml,≤ 10 µg/mL,78 µg/mL,≤ 10 µg/mL,at least eight-fold,"[H]/N=C(\N/C(=N/[H])NCCCCCCNC(=N)NC(=N)Nc1ccc(Cl)cc1)Nc1ccc(Cl)cc1 [Chlorhexidine, chlorhexidine]",≤ 10 µg/mL,–,≤ 10 µg/mL,≦10 μg/ml,≤ 10 µg/mL,at least 125 fold,–
